According to patent US20170114049A1, “2,5-DISUBSTITUTED CYCLOPENTANE CARBOXYLIC ACIDS FOR THE TREATMENT OF RESPIRATORY TRACT DISEASES” (BAYER PHARMA AKTIENGESELLSCHAFT, priority 2014, published 2017):
≈ marks a conversion by molar mass, not a printed value. Where two headings read alike, the source gives them in different places.

Key:
[1] = molecular target: T1, human macrophage elastase (HME/hMMP-12) (Homo sapiens, UniProt P39900); test: In vitro HME inhibition test (standard or high-sensitivity); assay type: biochemical
T1 construct: 0.5 nM HME; purchased R&D Systems 917-MP
T1 sequence (P39900 106-470): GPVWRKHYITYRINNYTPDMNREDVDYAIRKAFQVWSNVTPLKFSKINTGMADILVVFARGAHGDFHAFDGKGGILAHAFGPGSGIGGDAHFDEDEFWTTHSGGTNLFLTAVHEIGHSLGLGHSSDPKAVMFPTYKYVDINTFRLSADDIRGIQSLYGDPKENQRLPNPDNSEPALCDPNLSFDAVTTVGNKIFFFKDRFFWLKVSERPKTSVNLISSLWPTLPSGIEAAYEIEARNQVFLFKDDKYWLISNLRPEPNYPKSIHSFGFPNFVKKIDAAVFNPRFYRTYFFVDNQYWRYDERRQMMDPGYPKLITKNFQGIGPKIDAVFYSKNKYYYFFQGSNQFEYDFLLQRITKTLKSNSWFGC
Method: The potency of the compounds according to the invention with respect to HME (MMP-12) is determined in an in vitro inhibition test. The HME-mediated amidolytic cleavage of a suitable peptide substrate leads to an increase in fluorescent light therein. The signal intensity of the fluorescent light is directly proportional to the enzyme activity. The active concentration of a test compound at which half the enzyme is inhibited (50% signal intensity of the fluorescent light) is reported as the IC50 value.
In a 384 hole microtiter plate, in a total test volume of 41 μl, the test buffer (0.1 M HEPES pH 7.4, 0.15 M NaCl, 0.03 M CaCl2, 0.004 mM ZnCl2, 0.02 M EDTA, 0.005% Brij®), the enzyme (0.5 nM HME; from R&D Systems, 917-MP, autocatalytic activation according to the manufacturer's instructions) and the intramolecularly quenched substrate [5 μM Mca-Pro-Leu-Gly-Leu-Glu-Glu-Ala-Dap(Dnp)-NH2; Bachem, M-2670] are incubated in the absence and presence of the test substance (as a solution in DMSO) at 37° C. for two hours. The fluorescence intensity of the test mixtures is measured (excitation […], emission 393 nm). The IC50 values are ascertained by plotting the fluorescent light intensity against the active ingredient concentration.
In this case, an enzyme concentration ten times lower is used (final concentration, for example, 0.05 nM) in order to achieve an elevated test sensitivity. The incubation period chosen for the test is correspondingly longer (for example 16 hours).

[2] = molecular target: T2, MMP-3 (Homo sapiens, UniProt P08254); test: In vitro MMP-3 inhibition test; assay type: biochemical
T2 construct: purchased R&D Systems 513-MP
T2 sequence (P08254 100-477): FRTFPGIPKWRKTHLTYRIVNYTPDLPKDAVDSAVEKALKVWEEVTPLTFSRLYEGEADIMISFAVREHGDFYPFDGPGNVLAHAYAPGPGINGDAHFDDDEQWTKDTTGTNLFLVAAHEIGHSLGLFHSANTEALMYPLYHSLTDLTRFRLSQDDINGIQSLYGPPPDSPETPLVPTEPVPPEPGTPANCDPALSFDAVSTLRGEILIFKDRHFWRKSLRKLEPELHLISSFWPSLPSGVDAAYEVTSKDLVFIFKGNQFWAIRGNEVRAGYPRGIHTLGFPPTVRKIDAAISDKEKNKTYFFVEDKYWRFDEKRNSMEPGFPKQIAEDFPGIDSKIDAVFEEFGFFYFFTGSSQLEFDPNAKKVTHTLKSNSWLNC
Description: (§1) The MMP-mediated amidolytic cleavage of a suitable peptide substrate leads to an increase in fluorescent light here too. The signal intensity of the fluorescent light is directly proportional to the enzyme activity. The active concentration of a test compound at which half the enzyme is inhibited (50% signal intensity of the fluorescent light) is reported as the […].
Recombinant MMP-3 (from R&D Systems, 513-MP) is chemically activated in accordance with the manufacturer's instructions using APMA. 1 μl of the test compound to be analysed (as a solution in DMSO, suitable concentrations, for example, 1 nM to 30 μM) is pipetted into 24 μl of activated enzyme (final concentration, for example, 2 nM) in reaction buffer (50 mM Tris/HCl pH 7.5, 10 mM CaCl2, 150 mM NaCl, 0.05% Brij®-35) in a white 384-hole microtiter plate (MTP). The enzymatic reaction is started by adding the intramolecularly quenched Mca-Arg-Pro-Lys-Pro-Val-Glu-Nval-Trp-Arg-Lys(Dnp)-NH2 substrate (final concentration, for example, 10 μM; R&D Systems, ES-002), so as to result in a total test volume of 50 μl. The course of the MMP-3 reaction is measured by measuring the fluorescence intensity (excitation 320 nm, emission 410 nm) over a suitable period of time (for example over 120 min at a temperature of 32° C.).

[3] = molecular target: T3, mouse MMP-3 (Mus musculus, UniProt P28862); test: In vitro mouse MMP-3 inhibition test; assay type: biochemical
T3 construct: purchased R&D Systems 548-MP
T3 sequence (P28862 100-477): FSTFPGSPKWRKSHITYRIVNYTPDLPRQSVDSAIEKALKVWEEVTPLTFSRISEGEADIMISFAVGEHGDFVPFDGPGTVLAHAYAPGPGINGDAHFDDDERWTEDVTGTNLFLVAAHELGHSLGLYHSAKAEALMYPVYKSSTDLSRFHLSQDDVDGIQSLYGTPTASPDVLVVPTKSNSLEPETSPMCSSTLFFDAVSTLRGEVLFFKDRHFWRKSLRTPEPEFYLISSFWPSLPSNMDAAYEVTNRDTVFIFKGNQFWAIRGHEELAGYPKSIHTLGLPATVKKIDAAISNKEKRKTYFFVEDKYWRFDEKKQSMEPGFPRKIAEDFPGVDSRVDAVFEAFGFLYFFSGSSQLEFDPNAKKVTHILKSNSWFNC

[4] = molecular target: T4, mouse MMP-7 (Mus musculus, UniProt Q10738); test: In vitro mouse MMP-7 inhibition test; assay type: biochemical
T4 construct: purchased R&D Systems 2967-MP
T4 sequence (Q10738 95-264): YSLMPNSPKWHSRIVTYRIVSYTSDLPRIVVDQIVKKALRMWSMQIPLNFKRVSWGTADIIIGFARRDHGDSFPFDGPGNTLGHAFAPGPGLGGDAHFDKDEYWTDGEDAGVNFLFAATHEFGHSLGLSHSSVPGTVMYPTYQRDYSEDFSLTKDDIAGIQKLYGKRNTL
Description: as §1
(§2) Recombinant mouse MMP-7 (from R&D Systems, 2967-MP) is chemically activated in accordance with the manufacturer's instructions using APMA. 1 μl of the test compound to be analysed (as a solution in DMSO, suitable concentrations, for example, 1 nM to 30 μM) is pipetted into 24 μl of activated enzyme (final concentration, for example, 0.5 nM) in reaction buffer (50 mM Tris/HCl pH 7.5, 10 mM CaCl2, 150 mM NaCl, 0.05% Brij®-35) in a white 384-hole microtiter plate (MTP). The enzymatic reaction is started by adding the intramolecularly quenched Mca-Lys-Pro-Leu-Gly-Leu-Dpa(Dnp)-Ala-Arg-NH2 substrate (final concentration, for example, 5 μM; R&D Systems, ES-010), so as to result in a total test volume of 50 μl. The course of the MMP-7 reaction is measured by measuring the fluorescence intensity (excitation 320 nm, emission 410 nm) over a suitable period of time (for example over 120 min at a temperature of 32° C.).

[5] = molecular target: T5, mouse MMP-12 (Mus musculus, UniProt P34960); test: In vitro mouse MMP-12 inhibition test (standard or high-sensitivity); assay type: biochemical
T5 construct: purchased R&D Systems 3467-MP
T5 sequence (P34960 110-473): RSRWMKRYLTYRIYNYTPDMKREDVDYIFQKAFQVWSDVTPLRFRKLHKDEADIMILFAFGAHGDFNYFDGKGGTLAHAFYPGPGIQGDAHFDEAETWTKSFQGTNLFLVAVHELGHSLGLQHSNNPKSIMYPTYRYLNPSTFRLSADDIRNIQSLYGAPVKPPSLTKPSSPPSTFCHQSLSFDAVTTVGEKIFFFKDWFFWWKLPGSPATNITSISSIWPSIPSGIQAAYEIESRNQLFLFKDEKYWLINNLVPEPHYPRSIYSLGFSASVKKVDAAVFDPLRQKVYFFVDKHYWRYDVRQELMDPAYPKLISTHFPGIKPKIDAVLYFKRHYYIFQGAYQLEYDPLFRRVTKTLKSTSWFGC
Description: as §1
as §2, with “MMP-12” for “MMP-7”, “3467-MP)” for “2967-MP)”, “autocatalytically” for “chemically”, “instructions.” for “instructions using APMA.”, “1” for “0.5”
In this case, an enzyme concentration ten times lower is used (final concentration, for example, 0.1 nM) in order to achieve an elevated test sensitivity. The incubation period chosen for the test is correspondingly longer (for example 16 hours).

[6] = Determination of solubility in PBS buffer pH 6.5; details: PBS buffer, pH 6.5, aqueous buffer, kinetic from dmso stock, Solubility, PBS buffer pH 6.5, 1% DMSO, room temperature
Method: The test substance is dissolved in DMSO. An aliquot is taken from this solution and introduced into PBS buffer pH 6.5 (DMSO content: 1%). This solution/suspension is agitated at room temperature for 24 h. After ultracentrifugation at 114000 g for 30 min, the supernatant is removed, diluted with acetonitrile/water 8:2 and analysed by LC-MSMS. Quantification is effected by means of a five-point calibration curve of the test compound in DMSO.

[7] = absence of serum albumin (BSA), read-out: HME IC50 (−BSA)
[8] = standard or high-sensitivity HME inhibition test, read-out: HME/hMMP-12 IC50

IC50 [1, 7] | IC50 [1, 8] | IC50 [2] | IC50 [3] | IC50 [4] | IC50 [5] | solubility at 24 h [6] | Compound
0.12 nM | 0.12 nM | 1400 nM | 3100 nM | 630 nM | 7.6 nM | 17 µg/mL (≈ 32.7 µM) | Cc1ccc2nnn(C[C@@H]3CC[C@H](C(=O)c4ccc(OCCC5CCOCC5)cc4)[C@H]3C(=O)O)c(=O)c2c1 (racemic) [Example 19, (+/−)-(1RS,2SR,5RS)-2-[(6-Methyl-4-oxo-1,2,3-benzotriazin-3(4H)-yl)methyl]-5-{4-[2-(letrahydro-2H-pyran-4-yl)ethoxy]benzoyl}cyclopentanecarboxylic acid]
0.085 nM | 0.085 nM | 360 nM | 270 nM | 130 nM | 0.67 nM | 338 µg/mL (≈ 669 µM) | O=C(O)[C@@H]1[C@@H](Cn2nnc3ccccc3c2=O)CC[C@H]1C(=O)c1ccc(OCCC2CCOCC2)cc1 (single isomer, unassigned) [Example 5, (+)-(1RS,2SR,5RS)-2-[(4-Oxo-1,2,3-benzotriazin-3(4H)-yl)methyl]-5-{4-[2-(tetrahydro-2H-pyran-4-yl)ethoxy]benzoyl}cyclopentanecarboxylic acid]
0.19 nM | 0.19 nM | 260 nM | 620 nM | 210 nM | 9.4 nM | 210 µg/mL (≈ 366 µM) | O=C(O)[C@@H]1[C@@H](Cn2nnc3ccc(C(F)(F)F)cc3c2=O)CC[C@H]1C(=O)c1ccc(OCCC2CCOCC2)cc1 (single isomer, unassigned) [Example 11, (+)-(1RS,2SR,5RS)-2-{[4-Oxo-6-(trifluoromethyl)-1,2,3-benzotriazin-3(4H)-yl]methyl}-5-{4-[2-(tetrahydro-2H-pyran-4-yl)ethoxy]benzoyl}cyclopentanecarboxylic acid]
0.053 nM | 0.053 nM | 440 nM | 670 nM | 200 nM | 1.7 nM | 425 µg/mL (≈ 818 µM) | Cc1ccc2nnn(C[C@H]3CC[C@@H](C(=O)c4ccc(OCCC5CCOCC5)cc4)[C@@H]3C(=O)O)c(=O)c2c1 (single isomer, unassigned) [Example 20, (+)-(1RS,2SR,5RS)-2-[(6-Methyl-4-oxo-1,2,3-benzotriazin-3(4H)-yl)methyl]-5-{4-[2-(tetrahydro-2H-pyran-4-yl)ethoxy]benzoyl}cyclopentanecarboxylic acid]
0.04 nM | 0.04 nM | 1100 nM | 570 nM | 85 nM | 3.3 nM | 52.2 µg/mL (≈ 106 µM) | O=C(O)[C@H]1[C@H](Cn2nnc3ccccc3c2=O)CC[C@@H]1C(=O)c1ccc(OCC2CCOCC2)cc1 (stereo in doubt) [Example 1, (+/−)-(1RS,2SR,5RS)-2-[(4-Oxo-1,2,3-benzotriazin-3(4H)-yl)methyl]-5-[4-(tetrahydro-2H-pyran-4-ylmethoxy)benzoyl]cyclopentanecarboxylic acid]
0.071 nM | 0.071 nM | 710 nM | 710 nM | 52 nM | 0.85 nM | – | O=C(O)[C@@H]1[C@@H](Cn2nnc3ccccc3c2=O)CC[C@H]1C(=O)c1ccc(OCC2CCOCC2)cc1 (stereo in doubt) [Example 2, (+)-(1RS,2SR,5RS)-2-[(4-Oxo-1,2,3-benzotriazin-3(4H)-yl)methyl]-5-[4-(tetrahydro-2H-pyran-4-ylmethoxy)benzoyl]cyclopentanecarboxylic acid]
0.37 nM | 0.37 nM | – | 4000 nM | 1400 nM | 7.7 nM | 51.4 µg/mL (≈ 102 µM) | O=C(O)[C@H]1[C@H](Cn2nnc3ccccc3c2=O)CC[C@@H]1C(=O)c1ccc(OCCC2CCOCC2)cc1 (stereo in doubt) [Example 4, (+/−)-(1RS,2SR,5RS)-2-[(4-Oxo-1,2,3-benzotriazin-3(4H)-yl)methyl]-5-{4-[2-(tetrahydro-2H-pyran-4-yl)ethoxy]benzoyl}cyclopentanecarboxylic acid]
– | 0.021 nM | 120 nM | 120 nM | 130 nM | 2.8 nM | 33.4 µg/mL (≈ 58.2 µM) | O=C(O)[C@H]1[C@H](Cn2nnc3ccc(C(F)(F)F)cc3c2=O)CC[C@@H]1C(=O)c1ccc(OCCC2CCOCC2)cc1 (stereo in doubt) [Example 10, (+/−)-(1RS ,2S R,5RS)-2-{[4-Oxo-6-(trifluoromethyl)-1,2,3-benzotriazin-3(4H)-yl]methyl}-5-{4-[2-(tetrahydro-2H-pyran-4-yl)ethoxy]benzoyl}cyclopentanecarboxylic acid]
